Assay results from the supplement of paper PMC10307832.

Columns and labels:
Experiment in all cases: relative viability (nuclei count vs DMSO), 5 days (fraction); higher = more cells survive
[1] = test system: NCI-H1651
Summary of the method: (§1)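 Lung cancer cell lines in 1536-well plates got either a single drug or a fixed anchor-drug dose together with five library-drug doses (not always all listed) in √10 steps, by pin tool, on the day after seeding. Nuclei were counted after 5 days, and relative viability is the treated-to-vehicle ratio of nuclei counts. Values are medians of duplicate plates.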

[2] = test system: RERF-LC-KJ
Summary of the method: as §1

[3] = test system: NCI-H1944
Summary of the method: as §1

[4] = test system: NCI-H520
Summary of the method: as §1

[5] = test system: NCI-H838
Summary of the method: as §1

[6] = test system: A549
Summary of the method: as §1

[7] = test system: NCI-H650
Summary of the method: as §1

[8] = test system: NCI-H1623
Summary of the method: as §1

Molecule `CCN(CC)CCCCNc1ncc2cc(-c3cc(OC)cc(OC)c3)c(NC(=O)NC(C)(C)C)nc2n1` + N=C(N)NC(=N)NCCc1ccccc1 [Phenformin] (partner 250 µM) has a relative viability ([1]; first compound 0.01 µM) of 0.305, a relative viability ([1]; first compound 0.03162 µM) of 0.383 and a relative viability ([1]; first compound 0.1 µM) of 0.347. The relative viability ([1]; first compound 0.3162 µM) was 0.316, the relative viability ([1]; first compound 1 µM) was 0.257 and the relative viability ([2]; first compound 0.01 µM) was 0.389. It also gave a relative viability ([2]; first compound 0.03162 µM) of 0.463, a relative viability ([2]; first compound 0.1 µM) of 0.469 and a relative viability ([2]; first compound 0.3162 µM) of 0.471. It also gave a relative viability ([2]; first compound 1 µM) of 0.469, a relative viability ([3]; first compound 0.01 µM) of 0.204 and a relative viability ([3]; first compound 0.03162 µM) of 0.195. For the same molecule, the relative viability ([3]; first compound 0.1 µM) was 0.194, the relative viability ([3]; first compound 0.3162 µM) was 0.202 and the relative viability ([3]; first compound 1 µM) was 0.16. The relative viability ([4]; first compound 0.01 µM) was 0.453, the relative viability ([4]; first compound 0.03162 µM) was 0.519 and the relative viability ([4]; first compound 0.1 µM) was 0.623. The relative viability ([4]; first compound 0.3162 µM) was 0.335, the relative viability ([4]; first compound 1 µM) was 0.191 and the relative viability ([5]; first compound 0.01 µM) was 0.498. It also gave a relative viability ([5]; first compound 0.03162 µM) of 0.562, a relative viability ([5]; first compound 0.1 µM) of 0.597 and a relative viability ([5]; first compound 0.3162 µM) of 0.538. It also gave a relative viability ([5]; first compound 1 µM) of 0.291, a relative viability ([6]; first compound 0.01 µM) of 0.198 and a relative viability ([6]; first compound 0.03162 µM) of 0.19. The relative viability ([6]; first compound 0.1 µM) was 1.04, the relative viability ([6]; first compound 0.3162 µM) was 0.247 and the relative viability ([6]; first compound 1 µM) was 0.12. For the same molecule, the relative viability ([7]; first compound 0.01 µM) was 0.417, the relative viability ([7]; first compound 0.03162 µM) was 0.442 and the relative viability ([7]; first compound 0.1 µM) was 0.449. It also gave a relative viability ([7]; first compound 0.3162 µM) of 0.47, a relative viability ([7]; first compound 1 µM) of 0.451 and a relative viability ([8]; first compound 0.01 µM) of 0.602. For the same molecule, the relative viability ([8]; first compound 0.03162 µM) was 0.49, the relative viability ([8]; first compound 0.1 µM) was 0.626 and the relative viability ([8]; first compound 0.3162 µM) was 0.608. The relative viability ([8]; first compound 1 µM) was 0.577.
`COc1nc(C)cnc1NS(=O)(=O)c1cccnc1-c1ccc(-c2nnco2)cc1` [Zibotentan] + CCNC(=O)c1noc(-c2cc(C(C)C)c(O)cc2O)c1-c1ccc(CN2CCOCC2)cc1 [Luminespib] (partner 0.01 µM) showed a relative viability ([1]; first compound 0.08 µM) of 0.802, a relative viability ([1]; first compound 0.253 µM) of 0.484 and a relative viability ([1]; first compound 0.8 µM) of 0.958. For the same molecule, the relative viability ([1]; first compound 2.53 µM) was 0.796, the relative viability ([2]; first compound 0.08 µM) was 1.3 and the relative viability ([2]; first compound 0.253 µM) was 1.18. The relative viability ([2]; first compound 0.8 µM) was 1.44, the relative viability ([2]; first compound 2.53 µM) was 1.35 and the relative viability ([3]; first compound 0.08 µM) was 0.732. The relative viability ([3]; first compound 0.253 µM) was 0.694, the relative viability ([3]; first compound 0.8 µM) was 0.75 and the relative viability ([3]; first compound 2.53 µM) was 0.742. It also gave a relative viability ([4]; first compound 0.08 µM) of 0.206, a relative viability ([4]; first compound 0.253 µM) of 0.213 and a relative viability ([4]; first compound 0.8 µM) of 0.242. It also gave a relative viability ([4]; first compound 2.53 µM) of 0.164, a relative viability ([5]; first compound 0.08 µM) of 0.21 and a relative viability ([5]; first compound 0.253 µM) of 0.212. The relative viability ([5]; first compound 0.8 µM) was 0.314, the relative viability ([5]; first compound 2.53 µM) was 0.313 and the relative viability ([7]; first compound 0.08 µM) was 0.869. For the same molecule, the relative viability ([7]; first compound 0.253 µM) was 0.667, the relative viability ([7]; first compound 0.8 µM) was 0.865 and the relative viability ([7]; first compound 2.53 µM) was 0.856. For the same molecule, the relative viability ([8]; first compound 0.08 µM) was 0.427, the relative viability ([8]; first compound 0.8 µM) was 0.445 and the relative viability ([8]; first compound 2.53 µM) was 0.486.
In the case of `COc1nc(C)cnc1NS(=O)(=O)c1cccnc1-c1ccc(-c2nnco2)cc1` [Zibotentan] + Cc1nc(Nc2ncc(C(=O)Nc3c(C)cccc3Cl)s2)cc(N2CCN(CCO)CC2)n1 [Dasatinib] (partner 0.075 µM), the relative viability ([1]; first compound 0.08 µM) is reported as 0.462, the relative viability ([1]; first compound 0.253 µM) is reported as 0.318 and the relative viability ([1]; first compound 0.8 µM) is reported as 0.445. The relative viability ([1]; first compound 2.53 µM) was 0.451, the relative viability ([2]; first compound 0.08 µM) was 0.863 and the relative viability ([2]; first compound 0.8 µM) was 0.671. The relative viability ([2]; first compound 2.53 µM) was 0.749, the relative viability ([3]; first compound 0.08 µM) was 0.193 and the relative viability ([3]; first compound 0.253 µM) was 0.211. The relative viability ([3]; first compound 0.8 µM) was 0.221, the relative viability ([3]; first compound 2.53 µM) was 0.224 and the relative viability ([4]; first compound 0.08 µM) was 0.252. It also gave a relative viability ([4]; first compound 0.253 µM) of 0.222, a relative viability ([4]; first compound 0.8 µM) of 0.224 and a relative viability ([4]; first compound 2.53 µM) of 0.237. For the same molecule, the relative viability ([5]; first compound 0.08 µM) was 0.28, the relative viability ([5]; first compound 0.253 µM) was 0.233 and the relative viability ([5]; first compound 0.8 µM) was 0.283. For the same molecule, the relative viability ([5]; first compound 2.53 µM) was 0.305, the relative viability ([7]; first compound 0.08 µM) was 0.49 and the relative viability ([7]; first compound 0.253 µM) was 0.418. It also gave a relative viability ([7]; first compound 0.8 µM) of 0.46, a relative viability ([7]; first compound 2.53 µM) of 0.468 and a relative viability ([8]; first compound 0.08 µM) of 0.533. It also gave a relative viability ([8]; first compound 0.8 µM) of 0.567 and a relative viability ([8]; first compound 2.53 µM) of 0.507.
